These results are taken from patent EP0137692A2, “New antibiotic, neocopiamycin A and the production thereof” (Arai, Tadashi, Prof., priority 1983, dated 1985).

The subject of one data set is ddY mice. Nature of the data set: Acute toxicity. In kind it is in vivo. To be noted: for dose tolerated by all mice for 14 days without any toxic signs: mouse, in vivo. As to the method: Neocopiamycin A has the following physico-chemical properties. • (1) Color and Appearance: neutral, colorless, hygroscopic powder. • (2) Melting point: 134 - 136°C. […] Neocopiamycin A gives negative reactions to biuret, ninhydrin, Molisch, Fehling, ferric chloride, Liebermann-Burchard, 2,4-dinitrophenylhydrazine reagents, but possitive reactions to Dragendorff, platinic iodide and Sakaguchi reagents. It also gives pinkish coloration with conc. sulfuric acid, which subsequently turned brown with time. • (8) Ultra violet absorption spectrum: As shown in Fig. 1 of the accompanying drawings. λ^MeOHmax 205 nm (log ε 4.2) • (9) Infrared absorption spectrum: As-shown in Fig. 2 of the accompanying drawing. IR (KBr)(cm^-1) : 3380, 2975, 2925, 1715, 1655, 1595, 1455, 1375, 1240, 1140, 1070, 975, 845. • (10) NMR spectrum: As shown in Fig. 3 of the accompanying drawing. • (11) Rf values of TLC: • A purified sample of neocopiamycin A gives only one spot when chromatographed on thin layer chromatography TLC (Silica gel 60, plate F254) in different solvent systems and bioautographed against Candida albicans or absorption of ultraviolet. The Rf values and solvent systems employed are summarized in Table 1. [formula] • (12) Chemical structure: • According to spectral data and physicochemical characteristics, the sturcture of neocopiamycin A can be presumed to have the following formula:- [drawing 3] • Neocopiamycin A has the following biological properties. • (13) Antimicrobial Activity • The minimum inhibitory concentration (MIC) of neocopiamycin A against bacteria, yeast and fungi were determined by a serial two-fold agar dilution method. The medium used was Muller-Hilton agar for bacteria, and Sabouraud dextrose agar for yeasts and fungi. The antibiotic was dissolved in a small amount of ethanol and diluted with sterilized water to give final agar media containing less than one percent of the organic solvent, which was not a harmful concentration against the organisms tested. The MICs were determined after incubation for 24 hours or 4 days at 37^*C for bacteria, and after incubation 24 hours to 7 days at 37°C for yeasts and fungi, depending on the test strain. • Antimicrobial spectrum of neocopiamycin A is given in Tables 2, 3 and 4 below. […] Furthermore, it should be pointed out that neocopiamycin A inhibits the growth of both the filamentous and yeast- like fungi at the concentrations below 10 µg/ml. […] Antifungal spectra of copiamycin were similarly determined for the comparison purpose. [formula] [formula] • (14) Acute Toxicity • Acute toxicity of neocopiamycin A was determined with ddY mice weighing 20 to 21 g. Neocopiamycin A was finely pulverized and suspended in 15% aqueous ethanol solution for intraveneous, intraperitoneal and oral administrations. […]

The next data set relates to Gram-negative bacteria. Nature of the data set: MIC by serial two-fold agar dilution method (Muller-Hilton agar). In kind it is cell-based. The conditions noted are these: 24 hours or 4 days at 37°C. As to the method: (§1) Neocopiamycin A has the following physico-chemical properties. • (1) Color and Appearance: neutral, colorless, hygroscopic powder. • (2) Melting point: 134 - 136°C. […] Neocopiamycin A gives negative reactions to biuret, ninhydrin, Molisch, Fehling, ferric chloride, Liebermann-Burchard, 2,4-dinitrophenylhydrazine reagents, but possitive reactions to Dragendorff, platinic iodide and Sakaguchi reagents. […] [formula] • (12) Chemical structure: • According to spectral data and physicochemical characteristics, the sturcture of neocopiamycin A can be presumed to have the following formula:- [drawing 3] • Neocopiamycin A has the following biological properties. • (13) Antimicrobial Activity • The minimum inhibitory concentration (MIC) of neocopiamycin A against bacteria, yeast and fungi were determined by a serial two-fold agar dilution method. […] The MICs were determined after incubation for 24 hours or 4 days at 37^*C for bacteria, and after incubation 24 hours to 7 days at 37°C for yeasts and fungi, depending on the test strain. • Antimicrobial spectrum of neocopiamycin A is given in Tables 2, 3 and 4 below. […] Antifungal spectra of copiamycin were similarly determined for the comparison purpose. […] [formula] • (14) Acute Toxicity • Acute toxicity of neocopiamycin A was determined with ddY mice weighing 20 to 21 g. […]

The next data set concerns Gram-positive bacteria. The data set is described as above. Type of data set: cell-based. The conditions noted are these: 24 hours or 4 days at 37°C. As to the method:
as §1

The test system of a further data set is Trichomonas vaginalis. Briefly: Growth inhibition in thioglycolate medium. In kind it is cell-based. Also noted: unit not given here. The conditions noted are these: thioglycolate medium with 0.5% dextrin and 15% bovine serum.
Another data set concerns yeasts and fungi. Briefly: MIC by serial two-fold agar dilution method (Sabouraud dextrose agar). Type of data set: cell-based. As to the method:
Neocopiamycin A has the following physico-chemical properties. • (1) Color and Appearance: neutral, colorless, hygroscopic powder. • (2) Melting point: 134 - 136°C. […] Neocopiamycin A gives negative reactions to biuret, ninhydrin, Molisch, Fehling, ferric chloride, Liebermann-Burchard, 2,4-dinitrophenylhydrazine reagents, but possitive reactions to Dragendorff, platinic iodide and Sakaguchi reagents. It also gives pinkish coloration with conc. sulfuric acid, which subsequently turned brown with time. • (8) Ultra violet absorption spectrum: As shown in Fig. 1 of the accompanying drawings. λ^MeOHmax 205 nm (log ε 4.2) • (9) Infrared absorption spectrum: As-shown in Fig. 2 of the accompanying drawing. IR (KBr)(cm^-1) : 3380, 2975, 2925, 1715, 1655, 1595, 1455, 1375, 1240, 1140, 1070, 975, 845. • (10) NMR spectrum: As shown in Fig. 3 of the accompanying drawing. • (11) Rf values of TLC: • A purified sample of neocopiamycin A gives only one spot when chromatographed on thin layer chromatography TLC (Silica gel 60, plate F254) in different solvent systems and bioautographed against Candida albicans or absorption of ultraviolet. […] [formula] • (12) Chemical structure: • According to spectral data and physicochemical characteristics, the sturcture of neocopiamycin A can be presumed to have the following formula:- [drawing 3] • Neocopiamycin A has the following biological properties. • (13) Antimicrobial Activity • The minimum inhibitory concentration (MIC) of neocopiamycin A against bacteria, yeast and fungi were determined by a serial two-fold agar dilution method. […] The MICs were determined after incubation for 24 hours or 4 days at 37^*C for bacteria, and after incubation 24 hours to 7 days at 37°C for yeasts and fungi, depending on the test strain. • Antimicrobial spectrum of neocopiamycin A is given in Tables 2, 3 and 4 below. […] Antifungal spectra of copiamycin were similarly determined for the comparison purpose. […] [formula] • (14) Acute Toxicity • Acute toxicity of neocopiamycin A was determined with ddY mice weighing 20 to 21 g. […]

A short description of the next data set: Solubility. Type of data set: physicochemical. As to the method:
as §1

As for `CC(CCC/C=C/CCCN=C(N)N)CC(C)C1OC(=O)C=CC(C)C(O)CC(O)C(C)C(O)CCC(C)C(O)CC2(O)OC(CC(OC(=O)CC(=O)O)CC(O)CC(O)C(C)C(O)/C=C\C1C)CC(O)C2O` (stereo not drawn) [neocopiamycin A], in the data set with ddY mice (comparison with copiamycin), the “toxicity compared with copiamycin” value is reported as “less toxic than copiamycin”. Moreover, the “dose tolerated by all mice for 14 days without any toxic signs” value is on record as “more than 1,000 mg/kg” in the data set with ddY mice (ip, 336 h); 30 in the data set on ddY mice (iv); “more than 1,000 mg/kg” in the data set with ddY mice (po, 336 h). Also, the “antimicrobial activity against Gram-negative bacteria” value in the data set on Gram-negative bacteria is “inactive”. In addition, the “antimicrobial activity against Gram-positive bacteria” value in the data set on Gram-positive bacteria is “active”. Besides, in the data set with Trichomonas vaginalis, the “concentration inhibiting the growth of Trichomonas vaginalis” value is 1.56. For the same compound, in the data set with yeasts and fungi (Sabouraud dextrose agar, incubation 24 hours to 7 days at 37°C), the “concentrations inhibiting the growth of both the filamentous and yeast-like fungi” value is on record as “below 10 µg/ml”. Further, the “antimicrobial activity compared with copiamycin” value with yeasts and fungi (Tables 2, 3 and 4, comparison with copiamycin) is listed as “much higher antimicrobial activity than copiamycin”. For the same compound, the “antimicrobial activity against fungi, yeasts” value with yeasts and fungi (wide range of fungi, yeasts, agar dilution) is reported as “active”. The Solubility result in “Solubility” (acetone, dioxane, chloroform, carbon tetrachloride, ethyl acetate, butyl acetate, petroleum ether, benzene, methyl isobutyl ketone and water) is “sparingly soluble or insoluble”; in “Solubility” (methanol, ethanol, n-butanol, pyridine, dimethylformamide, glacial acetic acid), “soluble”.
